The source of these data is US20210371440A1, “TLR7 AND / OR TLR8 AGONISTS” (GLAXOSMITHKLINE BIOLOGICALS SA, priority 2018, published 2021).

One assay deals with T1, human TLR7 (Homo sapiens, UniProt Q9NYK1).
T1 construct: host or cells: HEK293
T1 sequence (Q9NYK1 27-1049): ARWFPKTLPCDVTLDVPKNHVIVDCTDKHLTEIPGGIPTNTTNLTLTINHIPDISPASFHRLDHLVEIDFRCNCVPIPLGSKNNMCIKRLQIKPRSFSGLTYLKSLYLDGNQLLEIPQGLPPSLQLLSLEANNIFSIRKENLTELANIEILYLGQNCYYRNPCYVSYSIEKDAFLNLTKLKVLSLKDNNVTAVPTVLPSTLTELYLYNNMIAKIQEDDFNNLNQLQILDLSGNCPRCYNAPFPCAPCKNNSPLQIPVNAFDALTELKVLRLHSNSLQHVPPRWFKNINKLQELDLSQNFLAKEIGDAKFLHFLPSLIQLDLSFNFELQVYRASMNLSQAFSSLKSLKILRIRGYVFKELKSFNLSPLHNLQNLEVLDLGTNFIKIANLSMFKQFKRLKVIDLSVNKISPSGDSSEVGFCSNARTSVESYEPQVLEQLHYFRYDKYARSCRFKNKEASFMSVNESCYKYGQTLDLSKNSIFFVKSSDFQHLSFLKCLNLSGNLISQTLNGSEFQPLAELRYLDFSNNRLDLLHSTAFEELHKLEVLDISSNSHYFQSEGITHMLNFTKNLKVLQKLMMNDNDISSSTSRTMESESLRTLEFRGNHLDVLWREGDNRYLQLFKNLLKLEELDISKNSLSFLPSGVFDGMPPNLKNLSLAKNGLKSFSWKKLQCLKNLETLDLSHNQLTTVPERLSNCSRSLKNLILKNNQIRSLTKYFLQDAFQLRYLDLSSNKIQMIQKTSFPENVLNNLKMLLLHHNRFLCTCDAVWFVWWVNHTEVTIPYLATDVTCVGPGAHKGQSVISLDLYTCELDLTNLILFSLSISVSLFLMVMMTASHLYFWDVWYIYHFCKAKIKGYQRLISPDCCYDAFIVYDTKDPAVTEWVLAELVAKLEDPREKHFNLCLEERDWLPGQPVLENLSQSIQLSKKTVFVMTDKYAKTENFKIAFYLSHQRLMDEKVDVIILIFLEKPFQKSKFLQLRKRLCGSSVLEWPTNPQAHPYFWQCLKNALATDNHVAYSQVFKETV
Put plainly: HEK293 hTLR7 NFKB-SEAP reporter assay. It is filed as cell-based. Particulars: for pEC50: HEK293 stably transfected with hTLR7, 24 h stimulation, aqueous formulations of choline salts (2% glycerol), SEAP readout, read-out: TLR7 ED50; for TLR7/8 ratio: ratio of TLR7 ED50 to TLR8 ED50, HEK293 reporter cells. On the procedure: (§1) Determination of TLR agonist activity was performed using the HEK293 binding assay.
(§2) This assay measures TLR7 and TLR8 selectivity and potency of the compounds tested. HEK293 cells expressing human TLR7 or TLR8 and NFKB responsive Secreted Embryonic Alkaline Phosphatase (SEAP) reporter gene were obtained from InvitroGen (San Diego, Calif.). These cells were maintained in culture media of Dulbecco's Modified Eagle Medium (DMEM) (Invitrogen, Grand Island, N.Y.), 10% Fetal Bovine Serum (FBS) (Sigma, St. Louis, Mo.) and selection antibiotics (Invitrogen, and Invitrogen). HEK293 stably transfected with human TLR7 (hTLR7) or human TLR8 (hTLR8) were stimulated for 24 h with aqueous formulations of compounds and culture supernatants were analysed for NFKB activation using the colorimetric SEAP detection kit QuantBlue (InvitroGen).
(§3) Choline salts of the compounds were prepared in aqueous solution (2% glycerol) and sonicated to reduce particle size to 120-370 nm.

The target in the next assay is T2, human TLR8 (Homo sapiens, UniProt Q9NR97).
T2 construct: host or cells: HEK293
T2 sequence (Q9NR97 27-1041): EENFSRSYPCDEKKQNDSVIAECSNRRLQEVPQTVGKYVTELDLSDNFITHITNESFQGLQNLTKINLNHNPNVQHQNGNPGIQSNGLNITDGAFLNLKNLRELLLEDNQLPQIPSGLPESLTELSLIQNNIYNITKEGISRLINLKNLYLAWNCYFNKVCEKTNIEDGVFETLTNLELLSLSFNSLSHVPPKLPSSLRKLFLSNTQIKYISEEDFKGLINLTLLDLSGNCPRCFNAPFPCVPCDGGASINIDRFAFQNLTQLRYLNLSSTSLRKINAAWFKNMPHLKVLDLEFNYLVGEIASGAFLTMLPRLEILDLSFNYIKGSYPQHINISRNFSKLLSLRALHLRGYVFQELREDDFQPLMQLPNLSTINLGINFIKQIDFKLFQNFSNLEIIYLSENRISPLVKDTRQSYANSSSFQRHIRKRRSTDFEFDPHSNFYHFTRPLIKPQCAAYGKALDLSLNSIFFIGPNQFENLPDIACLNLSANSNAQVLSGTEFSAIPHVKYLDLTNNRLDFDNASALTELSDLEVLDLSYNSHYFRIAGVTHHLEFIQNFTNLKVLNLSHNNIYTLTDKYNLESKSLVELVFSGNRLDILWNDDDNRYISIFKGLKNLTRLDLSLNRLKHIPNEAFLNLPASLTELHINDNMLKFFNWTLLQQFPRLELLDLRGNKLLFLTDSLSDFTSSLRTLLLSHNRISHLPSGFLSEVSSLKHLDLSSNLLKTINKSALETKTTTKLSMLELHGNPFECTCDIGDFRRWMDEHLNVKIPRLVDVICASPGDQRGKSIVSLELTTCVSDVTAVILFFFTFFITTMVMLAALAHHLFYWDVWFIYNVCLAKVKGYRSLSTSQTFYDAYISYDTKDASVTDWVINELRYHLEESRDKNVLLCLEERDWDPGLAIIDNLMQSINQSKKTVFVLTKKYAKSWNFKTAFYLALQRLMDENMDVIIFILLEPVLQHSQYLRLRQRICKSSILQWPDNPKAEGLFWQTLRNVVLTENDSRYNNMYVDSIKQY
Kind of assay: HEK293 hTLR8 NFKB-SEAP reporter assay. Particulars: for pEC50: HEK293 stably transfected with hTLR8, 24 h stimulation, aqueous formulations of choline salts (2% glycerol), SEAP readout, read-out: TLR8 ED50. It is filed as cell-based. On the procedure: as §1, §2, §3
(In general: Reporter assays use an easily measured gene product as a stand-in for the process of interest.)

pEC50: −log10 of the molar value.

For the compound `CCC[C@H](C)Oc1nc(N)c2[nH]c(=O)n(CC3CCN(CCO)CC3)c2n1`, at human TLR7, the pEC50 was 6.47 and the TLR7/8 ratio was determined as 0.6. In addition, at human TLR8, the pEC50 is 6.28.
In the case of `CCCCCCCC/C=C\CCCCCCCC(=O)OC[C@H](COP(=O)(O)OCCN1CCC(Cn2c(=O)[nH]c3c(N)nc(O[C@@H](C)CCC)nc32)CC1)OC(=O)CCCCCCC/C=C\CCCCCCCC` [Compound 1], at human TLR7 (HEK293 hTLR7, result in words), the “hTLR7 activity compared with parent core oxoadenine compound” value is on record as “slightly more potent”. Besides, the “TLR7/TLR8 selectivity in words” value on human TLR7 (HEK293 hTLR7 vs hTLR8, relative to similar prior art compounds) is “TLR7 bias”. Besides, on human TLR7, the pEC50 was 6.49 and the TLR7/8 ratio is recorded as 0.7. For the same compound, at human TLR8 (HEK293 hTLR8, result in words), the “hTLR8 activity compared with parent core oxoadenine compound” value is “slightly more potent”. The pEC50 at human TLR8 was 6.33.
As to `CCCCc1nc2c(N)nc3ccccc3c2n1CCO` [reference compound], on human TLR7, the pEC50 is 6.24 and the TLR7/8 ratio was found to be 3.1. In addition, the pEC50 on human TLR8 is 6.72.
For `CC/C=C\CC(=O)OC[C@H](COP(=O)(O)OCCn1c(CCCC)nc2c(N)nc3ccccc3c21)OC(=O)C/C=C\CC` [reference compound] the same measures were 4.46, 1.3 and 4.59.
